Assay results: patent EP0971739B1 (priority 1997, dated 1998)

Tested on: tetanus toxoid
Parameters: species or system ICR mice
Details: mouse, in vivo

CCCCCCCCCCCCCCCC(=O)OC[C@H](COP(=O)([O-])OCC[N+](C)(C)C)OC(=O)CCCCCCCCCCCCCCC [DPPC, 1,2-Dipalmitoyl-sn-glycero-3-phosphocholine]
Anti-Tetanus Toxoid Titer^-1 Fecal Extract d7P2° IgA: <50 | Anti-Tetanus Toxoid Titer^-1 Fecal Extract d7P2° IgG: <50 | Anti-Tetanus Toxoid Titers^-1 IgG1: 25,600 | Anti-Tetanus Toxoid Titers^-1 IgG2a: 1,600 | Anti-Tetanus Toxoid Titers^-1 IgG2b: 3,200 | Serum Anti-Tetanus Toxoid Titer^-1 IgA-Specific d10P2°: 100 | Serum Anti-Tetanus Toxoid Titer^-1 IgA-Specific d10P3°: 200 | Serum Anti-Tetanus Toxoid Titer^-1 IgG-Specific d10P2°: 6,400 | Serum Anti-Tetanus Toxoid Titer^-1 IgG-Specific d10P3°: 6,400
